Reference: ChEMBL document CHEMBL4004860, “Medicinal plants used as anthelmintics: Ethnomedical, pharmacological, and phytochemical studies” (Eur J Med Chem, 2017)

Tests used:
Assay type in all cases: functional
Schistosoma mansoni = assay: Antiparasitic activity against Schistosoma mansoni
Taenia crassiceps = assay: Cysticidal activity against Taenia crassiceps cysts after 11 days by trypan blue exclusion method; conditions: 264 h
Rodentolepis nana = assay: Antihelmintic activity against Hymenolepis nana
Haemonchus contortus [1] = assay: Antihelmintic activity against Haemonchus contortus L3 larval stage
Caenorhabditis elegans = assay: Nematocidal activity against Caenorhabditis elegans
[2] = tested on: Trichostrongylus colubriformis; assay: Antihelmintic activity against Trichostrongylus colubriformis
Ascaridia galli = assay: Antihelmintic activity against Ascaridia galli
Metaphire posthuma = assay: Antihelmintic activity against Pheretima posthuma
Meloidogyne incognita [3] = assay: Nematocidal activity against Meloidogyne incognita; conditions: for IC50: Meloidogyne incognita
[4] = Antiparasitic activity against Taenia solium
[5] = tested on: Raillietina echinobothrida; assay: Antiparasitic activity against Raillietina echinobothrida
Paramphistomum = assay: Antiparasitic activity against Paramphistomum sp.
Brugia malayi = assay: Antiparasitic activity against Brugia malayi
Haemonchus contortus [6] = assay: Nematocidal activity against Haemonchus contortus
[7] = tested on: Bursaphelenchus xylophilus; assay: Antiparasitic activity against Bursaphelenchus xylophilus
Panagrellus redivivus = assay: Antiparasitic activity against Panagrellus redivivus
Meloidogyne incognita [8] = assay: Nematocidal activity against Meloidogyne incognita second-stage juveniles up to 72 hrs
[9] = tested on: Nippostrongylus brasiliensis; assay: Nematocidal activity against Nippostrongylus brasiliensis L4 larval stage
Haemonchus contortus [10] = assay: Antihelmintic activity against egg stage of Haemonchus contortus
Haemonchus contortus [11] = assay: Antihelmintic activity against larval stage of Haemonchus contortus
Meloidogyne incognita [12] = assay: Nematocidal activity against Meloidogyne incognita second-stage juveniles after 3 days by light microscopic method
Setaria cervi = assay: Antiparasitic activity against Setaria cervi
Ascaris suum = assay: Antiparasitic activity against L3 and L4 larval stages of Ascaris suum

`CCCC(=O)C1=C(O)C(C)(C)C(O)=C(Cc2c(O)c(C)c(OC)c(C(=O)CCC)c2O)C1=O` gave an EC (Schistosoma mansoni) of 0.01 mM.
Compound `O=c1cc(-c2ccccc2)oc2cc(O)cc(O)c12` [CHRYSIN] has an IC50 (Taenia crassiceps) of 80 µM.
Work on `CCC/C=C/C(=O)CCc1ccc(O)c(OC)c1` yielded an EC (Rodentolepis nana) of 0.001 mM.
`C=C(C)[C@@H]1CC[C@]2(C)CC[C@]3(C)[C@H](CC[C@@H]4[C@@]5(C)CC[C@H](O)C(C)(C)[C@@H]5CC[C@]43C)[C@@H]12` [LUPEOL] showed an IC50 (Haemonchus contortus [1]) of 50 µM, an IC50 (Caenorhabditis elegans) of 5 to 6 µM and an IC50 [2] of 190 µM.
In the case of `CCN(CC)c1ccc2c(C)cc(=O)oc2c1`, the EC (Ascaridia galli) is reported as 4.32 mM and the EC (Metaphire posthuma) is reported as 4.32 mM.
`C=CCc1ccc(OC)c(OC)c1` [METHYLEUGENOL] gave an IC50 (Meloidogyne incognita [3]) of 500 µM.
`COc1cc(CCC(=O)C[C@@H](O)CCc2ccc(O)c(OC)c2)ccc1O` gave an EC (Rodentolepis nana) of 0.001 mM.
Compound `CC(C)=CC(=O)O[C@@H]1CC(C)(C)C[C@H]2C3=CC(=O)[C@@H]4[C@]56CC[C@](O)(OC5)C(C)(C)[C@@H]6CC[C@@]4(C)[C@]3(C)CC[C@@]12C(=O)O` has an EC (Meloidogyne incognita [3]) of 1.71 mM.
Compound `C[C@@H]1CC[C@]2(C(=O)O)CC[C@]3(C)C(=CC[C@@H]4[C@@]5(C)CC[C@H](O)C(C)(C)[C@@H]5CC[C@]43C)[C@@H]2[C@]1(C)O` [POMOLIC ACID] has an EC (Meloidogyne incognita [3]) of 2.11 mM.
In the case of `CC(C)CCCCCCCCCCCCCC(=O)OC[C@@H](O)CO`, the EC [4] is reported as 29.5 mM.
In the case of `O=c1c(-c2ccc(O)cc2)coc2cc(O)cc(O)c12` [GENISTEIN], the EC [5] is reported as 0.74 mM and the EC (Paramphistomum) is reported as 0.74 mM.
`CC[C@H](CC[C@@H](C)[C@H]1CC[C@@H]2[C@]1(C)CC[C@H]1[C@@]2(C)CC=C2C[C@@H](O[C@@H]3O[C@H](CO)[C@@H](O)[C@H](O)[C@H]3O)CC[C@@]21C)C(C)C` gave an EC (Brugia malayi) of over 0.86 mM and an IC50 (Caenorhabditis elegans) of 140 µM.
In the case of `CC1(C)CC[C@]2(C(=O)O)CC[C@]3(C)C(=CC[C@@H]4[C@@]5(C)CC[C@H](O)C(C)(C)[C@@H]5CC[C@]43C)[C@@H]2C1` [OLEANOLIC_ACID], the EC (Brugia malayi) is reported as 0.06 to 0.13 mM.
In the case of `C=C1C(=O)O[C@@H]2[C@H]3C(CO)=CC(=O)C3=C(C)C[C@@H](O)[C@@H]12` [LACTUCIN], the EC (Haemonchus contortus [6]) is reported as 2.89 mM.
For `C=C1C(=O)O[C@@H]2[C@H]3C(CO)=CC(=O)C3=C(C)CC[C@@H]12` [DEOXYLACTUCIN], the EC (Haemonchus contortus [6]) was 4.99 mM.
In the case of `CCCCCCCCCCCCCCCCCCCCCC(=O)OC[C@@H](O)CO`, the EC [4] is reported as 23.24 mM.
`C=C1C(=O)O[C@@H]2[C@H]1CC/C(C)=C/CC[C@]1(C)O[C@@H]21` gave an IC50 [7] of 280 µM and an IC50 (Panagrellus redivivus) of 180 µM.
In the case of `C=CCc1ccc(OC)cc1` [ESTRAGOLE], the IC50 (Meloidogyne incognita [3]) is reported as 1250 µM.
In the case of `Cc1ccc(C(C)C)cc1` [P-CYMENE], the IC50 (Meloidogyne incognita [8]) is reported as 3240 µM.
For `C=C(C)[C@@H]1CC[C@]2(C(=O)O)CC[C@]3(C)[C@H](CC[C@@H]4[C@@]5(C)CC[C@H](O)C(C)(C)[C@@H]5CC[C@]43C)[C@@H]12` [BETULINIC ACID], the IC50 (Haemonchus contortus [1]) was 110 µM, the IC50 (Caenorhabditis elegans) was 150 to 220 µM and the IC50 [2] was 180 µM. The EC [4] was 21.9 mM.
Work on `C=C1CC[C@H]2[C@@](C)(CCC[C@]2(C)C(=O)O)[C@@H]1C/C=C(\C)[C@@H]1CCc2c(O)c(C(=O)CCC)c(O)c(CC3=C(O)C(C)(C)C(O)=C(C(C)=O)C3=O)c2O1` yielded an IC50 [9] of 34 µM.
With `O=C1OCCN2Oc3ccccc3C12` (stereo not given) the EC (Ascaridia galli) was 5.23 mM and the EC (Metaphire posthuma) was 5.23 mM.
Compound `Cc1ccc(C(C)C)c(O)c1` [THYMOL] has an IC50 (Haemonchus contortus [10]) of 3660 µM and an IC50 (Haemonchus contortus [11]) of 16600 µM.
Work on `CC(C)=C[C@H](O)C[C@@H](C)[C@H]1CC[C@@]2(C)[C@@H]3[C@@H](O)C=C4[C@@H](CC[C@H](O)C4(C)C)[C@@]3(C=O)CC[C@]12C` yielded an IC50 (Caenorhabditis elegans) of 30 µM.
`CCCCCCCCC[C@H](O)CC(=O)CCc1ccc(O)c(OC)c1` showed an EC (Rodentolepis nana) of 0.001 mM.
`CCCC(=O)C1=C(O)C(C)(C)C(O)=C(Cc2c(O)c(CC3=C(O)C(C)(C)C(O)=C(C(C)=O)C3=O)c(O)c(C(=O)CCC)c2O)C1=O` gave an IC50 [9] of 37 µM.
Work on `C=C(C)[C@@H]1CCC2(C)OC2C1` (single isomer, unassigned; (+)) yielded an EC (Schistosoma mansoni) of 0.16 mM.
For `C=CCc1ccc(O)c(OC)c1` [EUGENOL], the IC50 (Caenorhabditis elegans) was 370 µM and the IC50 (Meloidogyne incognita [3]) was 400 µM.
For `CCCCC[C@H](O)C[C@@H](O)CCc1ccc(O)c(OC)c1`, the EC (Rodentolepis nana) was 0.001 mM.
Work on `CC1=CC2C(=O)c3cccc(O)c3C(=O)C2C(O)=C1O` (stereo not given) yielded an EC (Schistosoma mansoni) of 0.19 mM.
In the case of `CCO[C@@H]1O[C@H](CO)[C@H](O)[C@H](O)[C@H]1O`, the EC (Brugia malayi) is reported as over 2.4 mM.
Compound `O=C(O)c1ccc(O)c(O)c1` [PROTOCATECHUIC ACID] has an EC (Meloidogyne incognita [12]) of 0.78 mM.
`CCCC(=O)c1c(O)c(CC2=C(O)C(C)(C)C(O)=C(C(C)=O)C2=O)c(O)c(CC2=C(O)C(C)(C)C(O)=C(C(C)=O)C2=O)c1O` gave an IC50 [9] of 28 µM.
Compound `CCCCC[C@H](O)C[C@H](O)CCc1ccc(O)c(OC)c1` has an EC (Rodentolepis nana) of 0.001 mM.
Work on `O=C1c2cccc(O)c2C(=O)C2C(O)=C(O)C(CO)=CC12` (stereo not given) yielded an EC (Schistosoma mansoni) of 0.17 mM.
With `CO[C@H]1[C@H](O)[C@@H](O)[C@@H](O)[C@H](O)[C@@H]1O` [METHYLINOSITOL] the IC50 (Haemonchus contortus [1]) was 22700 µM.
`C=C1CC[C@H]2[C@@](C)(CCC[C@]2(C)C(=O)O)[C@@H]1C/C=C(\C)[C@H]1CCc2c(O)c(C(=O)CCC)c(O)c(CC3=C(O)C(C)(C)C(O)=C(C(C)=O)C3=O)c2O1` gave an IC50 [9] of 22 µM.
Work on `COc1cc(/C=C/C(=O)CC(=O)/C=C/c2ccc(O)c(OC)c2)ccc1O` [CURCUMIN] yielded an EC (Schistosoma mansoni) of 0.005 mM.
With `O=C1C[C@@H](c2ccccc2)Oc2cc(O)cc(O)c21` [PINOCEMBRIN] the IC50 (Taenia crassiceps) was 2 µM.
In the case of `C[C@H]1[C@H](C)CC[C@]2(C(=O)O)CC[C@]3(C)C(=CC[C@@H]4[C@@]5(C)CC[C@H](O)C(C)(C)[C@@H]5CC[C@]43C)[C@H]12` [URSOLIC ACID], the IC50 (Caenorhabditis elegans) is reported as 50 µM, the EC (Meloidogyne incognita [3]) is reported as 2.18 mM and the EC (Setaria cervi) is reported as 0.004 mM.
With `CC1(C)C[C@@H](O)[C@]2(C(=O)O)CC[C@]3(C)C(=CC[C@@H]4[C@@]5(C)CCC(=O)C(C)(C)[C@@H]5CC[C@]43C)[C@@H]2C1` the EC (Meloidogyne incognita [3]) was 2.12 mM.
For `CCCCCC(=O)/C=C(O)/C=C/c1ccc(O)c(OC)c1`, the EC (Rodentolepis nana) was 0.001 mM.
For `CCCCC[C@H](O)CC(=O)CCc1cc(O)c(O)c(OC)c1`, the EC (Rodentolepis nana) was 0.001 mM.
For `CC[C@H](CC[C@@H](C)[C@H]1CC[C@@H]2[C@]1(C)CC[C@H]1[C@@]2(C)CC=C2C[C@@H](O)CC[C@@]21C)C(C)C`, the EC (Brugia malayi) was over 1.2 mM.
For `CCCC(=O)C1=C(O)C(C)(C)C(O)=C(Cc2c(OC)cc(O)c(C(=O)CCC)c2O)C1=O` [DESASPIDIN], the EC (Schistosoma mansoni) was 0.01 mM.
`CC(C)[C@]12C=C[C@](C)(CC1)COOC2` showed an IC50 (Meloidogyne incognita [8]) of 7860 µM.
`CC[C@H](CC[C@@H](C)[C@H]1CC[C@]2(C)[C@]1(C)CC[C@@H]1[C@@]3(C)CC[C@H](O[C@@H]4O[C@H](CO)[C@@H](O)[C@H](O)[C@H]4O)CC3=CC[C@]12C)C(C)C` showed an EC [4] of 17.34 mM.
`COc1cc(CC/C=C/C(=O)CCc2ccc(O)c(OC)c2)ccc1O` gave an EC (Rodentolepis nana) of 0.001 mM.
Compound `C=C1CC[C@H]2[C@@](C)(CCC[C@]2(C)C(=O)O)[C@@H]1C/C=C(\C)[C@@H]1CCc2c(C)c(CC3=C(O)C(C)(C)C(O)=C(C(C)=O)C3=O)c(O)c(C(=O)CCC)c2O1` has an IC50 [9] of 118 µM.
`CC1(C)OC(=O)NC(C(=O)O)c2ccc(O)cc21` (stereo not given) gave an EC (Ascaridia galli) of 3.9 mM and an EC (Metaphire posthuma) of 3.9 mM.
Work on `CCCCC/C=C/C(=O)CCc1ccc(O)c(OC)c1` [SHOGAOL] yielded an EC (Rodentolepis nana) of 0.001 mM.
Compound `C/C=C/c1ccc(OC)cc1` [ANETHOLE] has an IC50 (Haemonchus contortus [10]) of 4650 µM and an IC50 (Haemonchus contortus [11]) of 14200 µM.
Work on `O=C/C=C/c1ccccc1` [CINNAMALDEHYDE] yielded an EC (Ascaris suum) of 0.2 mM.
Work on `CCCCCCCCCCCCCCCCC(=O)OC[C@@H](O)CO` yielded an EC [4] of 29.5 mM.
With `CC(C)[C@@]12C=C[C@@](C)(CC1)OO2` [(Z)-ASCARIDOLE] the IC50 (Meloidogyne incognita [8]) was 190 µM.
With `CC(C)=CC(=O)O[C@@H]1C[C@@H](C)C(C)(O)[C@H]2C3=CC[C@@H]4[C@@]5(C)CC[C@H](O)C(C)(C)[C@@H]5CC[C@@]4(C)[C@]3(C)CC[C@]21C(=O)O` (stereo not given in full) the EC (Meloidogyne incognita [3]) was 1.75 mM.
`C[C@H]1CC[C@@]2(OC1)O[C@H]1C[C@H]3[C@@H]4CC[C@H]5C[C@@H](O[C@@H]6O[C@H](CO)[C@H](O[C@@H]7O[C@H](CO)[C@@H](O)[C@H](O[C@@H]8OC[C@@H](O)[C@H](O)[C@H]8O)[C@H]7O[C@@H]7OC[C@@H](O)[C@H](O)[C@H]7O)[C@H](O)[C@H]6O[C@@H]6O[C@@H](C)[C@H](O)[C@@H](O)[C@H]6O)CC[C@]5(C)[C@H]4CC[C@]3(C)[C@H]1[C@@H]2C` gave an IC50 (Caenorhabditis elegans) of 60 µM.
For `CCCCC[C@H](O)CC(=O)CCc1ccc(O)c(OC)c1` [GINGEROL], the EC (Rodentolepis nana) was 0.001 mM.
With `CCCCCCCCC/C=C/C(=O)CCc1ccc(O)c(OC)c1` the EC (Rodentolepis nana) was 0.001 mM.
